Assay results published in patent US20250064768A1, “METHODS AND COMPOSITIONS FOR TREATING AGING AND CHRONIC DISEASE” (priority 2021, published 2025).

Columns and labels:
[1] = tested on: mouse model of sepsis; details: in vitro results and mouse model of sepsis
[2] = Phase 2 clinical study of liposomal trans-crocetin: pharmacokinetics; details: across different dosing regimens
[3] = tested on: HUVECs; test: Reoxygenation of hypoxic HUVECs (flow cytometry, BioTracker 520 green hypoxia dye); type: cell-based; details: HUVECs under hypoxia (1%)
Protocol: The % P02 was assessed based on the readout of the BioTracker 520 green hypoxia dye. (FIG. 1G) Quantification of % P02 based on the flow cytometric data. (FIG. 1H) Quantification of % P02 based on the flow cytometric data of HUVECs incubated with 120 μg/mL LEAF-4L121 over time and (FIG. 11) as a function of various concentrations of LEAF-4L121 at 24 h.
In vitro, we first sought to evaluate the reoxygenation properties of LEAF-4L121 in endothelial cells (HUVECs). The IC50 of LEAF-4L121 in HUVECs was determined after 72 h of treatment by viability assays (CellTiter-Glo, Promega). […] We next incubated HUVECs in hypoxic conditions (1% P02) for 24 h before treatment with either free TC or various concentrations of LEAF-4L121. […] This rapid oxygenation effect of LEAF-4L121 is likely attributed to a biphasic release of TC from the liposomes that includes an initial fast release (approx. 25% in the first 6 h) of some of the payload followed by a more sustained release of TC from the liposomes over a prolonged period.

[4] = mouse, in vivo
Protocol: The clinical development of trans-crocetin has been problematic because its oxygen diffusion enhancing effect is transient, due to two key factors. Poor solubility: trans-crocetinate monovalent metal salts such as TSC, as free drugs were designed presumably to overcome the solubility issue associated with crocetin (free acid). Short half-life: TSC half-life is approximately 30 minutes, which in a clinical setting leads to transient effect on oxygen diffusion enhancement.

[5] = human, in vivo; cited from earlier work
[6] = in vivo; cited from earlier work

Row | Compound | reoxygenation activity [1] | AUC and Cmax versus body weight [2] | reoxygenation, PO2 ([3]; 30 min post-treatment, 5 μg/mL TC) | reoxygenation, PO2 ([3]; 3 h after treatment) [% P02] | half-life (t½) [4] | safety in clinical trials [5] | half-life [6]
1 | CC(/C=C/C=C(\C)C(=O)O)=C\C=C\C=C(C)\C=C\C=C(/C)C(=O)O [TC, trans-crocetin] | demonstrated the reoxygenation activity | stable levels of AUC and Cmax across a wide range of body weights | up to 15 % PO2 | 5 |  |  | 
2 | CC(/C=C/C=C(\C)C(=O)[O-])=C\C=C\C=C(C)\C=C\C=C(/C)C(=O)[O-].[Na+].[Na+] [TSC, trans sodium crocetinate] |  |  |  |  | half an hour | no safety concerns | approximately 30 minutes
